Results as given in patent US20110230407A1, “HEPATOCYTE GROWTH FACTOR PATHWAY ACTIVATORS IN DEMYELINATING DISEASES AND CENTRAL NERVOUS SYSTEM TRAUMA” (priority 2005, published 2011).

Key:
Assay type in all cases: cell-based
smooth muscle cells = assay: Mitogenesis in smooth muscle cells lacking the Met receptor
[1] = test system: fibroblasts lacking the Met receptor; assay: Mitogenesis in fibroblasts lacking the Met receptor
Description: To determine whether mimetic-mediated Met phosphorylation induces similar intracellular signaling cascades as HGF/SF, and to assess whether these signaling events convey biologic activity, experiments were carried out using an Akt inhibitor and the phosphoinositide3-kinase inhibitor Wortmannin.

[2] = test system: mouse primary oligodendrocytes; assay: Oligodendrocyte proliferation, WST1 reagent; details: treated 16-24 hours, serum-free; FIGS. 3C and 3D
From the text: (§1) Small molecule HGF/SF agonist mimics HGF/SF's pro-proliferative effects. Oligodendrocytes and Schwann cells are both cells that support neuronal function by ensheathing neuronal axons with myelin. An individual supporting cell comprises a single segment of an axon's myelin sheath and is active in facilitating axonal growth. An important aspect of HGF/SF activity is this growth factor's ability to induce oligodendrocyte and Schwann cell proliferation. In order to evaluate small molecule HGF/SF mimetics for potential HGF/SF-like bioactivity, rat RSC96 Schwann cells (ATCC, Manassas, Va.) or mouse primary oligodendrocytes (Celprogen, San Pedro, Calif.) were seeded in 96-well plates at 5000 cells/well in serum-free medium for 16 hours. Cells were treated with test compound or HGF/SF (positive control) for 16-24 hours. [^3H]-thymidine was added to the medium with Schwann cells, WST1 cell proliferation reagent (Roche, Indianapolis, Ind.) was added to oligodendrocytes, and incubation was continued for another 4-5 hours. Schwann cells were washed with PBS and harvested. [^3H]-thymidine incorporation was determined and used as a measure of proliferation (increased DNA synthesis). Cells with WST1 reagent were read using a plate reader at an OD of 490 nm.

rat RSC96 Schwann cells = assay: Schwann cell proliferation, [3H]-thymidine incorporation; details: treated 16-24 hours, serum-free; FIGS. 3A and 3B
From the text: as §1

NGF, BDNF, and NT-4 = assay: Expression of neurotrophic growth factors in Schwann cells, Western blot; details: Schwann cell protein extracts; FIG. 6
From the text: HGF/SF- and HGF/SF mimetic-activated Schwann cells show increased expression of neurotrophic growth factors.

Schwann cells [3] = assay: H2O2-induced apoptosis of Schwann cells (Apo-ONE Assay kit); details: 0.5 mM H2O2 for 2 hours; HGF 50 ng/ml, mimetic 10 micromolar; FIG. 1
Description: HGF and small molecule HGF/SF mimetic protect Schwann cells against H2O2-induced apoptosis. Schwann cells were seeded in 96 well plates at a density of 5000 cells/well, overnight in serum-free media. Cells were treated with 0.5 mM H2O2 for 2 hours in the presence of vehicle (Veh), HGF (50 ng/ml) or HGF/SF mimetic (10 micromolar). Cells were assayed for apoptosis using the Apo-ONE Assay kit (Promega).

Schwann cells [4] = assay: Myelin production by fluoromyelin staining, Schwann cells; details: 4 hours
Description: HGF/SF and small molecule HGF/SF mimetic increase myelin production in Schwann cells. It is well-known that the primary function of oligodendrocytes and Schwann cells is myelin production. […] Cells were seeded in 3 well chamber slides at a density of 50,000 cells/well in serum free media for 24 hours. Then HGF/SF (50 ng/ml) or a small molecule HGF/SF mimetic (5 μM) were added to the same medium and cells incubated for an additional 4 hours. Cells were washed, and fluoromyelin (Molecular Probes) was added to each well (30 min exposure at room temperature), and cells observed under a confocal microscope (Olympus). […] To obtain semi-quantitative measurements of this increase in the fluoromyelin signal, a second experiment was performed. Schwann cells were seeded in 6 well plates at a density of 4×10^5 cells/well and treated with HGF (50 ng/ml) or mimetic (5 uM) for 4 hours. Fluoromyelin staining was performed as described above and relative fluorescence was measured using a fluorescence plate reader.

Human neurons = assay: Neuronal axon growth and cell density in human neurons; details: 48 hours, FIG. 5
Description: In this experiment, the ability of HGF/SF and mimetic to activate axonal growth was assessed. Human neurons (ATCC) were seeded in 6-well plates (1000 cell/well) in media containing 1% FBS. Cells were treated with HGF/SF (50 ng/ml) or mimetic (5 micromolar) for 48 hours. […] Cell shape, size, and density are clearly different in the presence of HGF/SF and mimetic compared with control. […] In one experiment, neurons were incubated with conditioned media from Schwann cells (FIG. 5, right field). […] Thus, secreted growth factors present in Schwann cell media are ineffective (or are at least effects are below the level of detection) as cell mitogens.

oligodendrocytes = assay: Myelin production by fluoromyelin staining, oligodendrocytes; details: HGF/SF 50 ng/ml, mimetic 5 μM, 4 hours
Schwann cells [5] = assay: Schwann cell migration, Migration Chamber; details: 22 hours, quantified with Calcein; FIG. 7
Description: HGF/SF mimetic recapitulates HGF/SF activity in Schwann cells. To compare the direct effects of HGF/SF mimetic and HGF/SF on cell migration, an in vitro migration assay was employed using a Migration Chamber (BD Biosciences). 50,000 cells were seeded in the inner chamber for 22 hours in the presence of 0.4% or 10% FBS, HGF/SF, or mimetic. Cell number was quantified with […] Calcein using a fluorescence plate reader.

“HGF/SF: Scatter factor / hepatocyte growth factor, pleiotropic growth factor, heparin binding heterodimeric protein signalling through Met” was tested, and the “mitogenesis in smooth muscle cells, which also lack the Met receptor” value (smooth muscle cells) was “A similar result was obtained”, the “mitogenesis in fibroblasts lacking the Met receptor” value [1] was “neither the mimetic nor HGF/SF activated mitogenesis” and the “oligodendrocyte proliferation (WST1, OD 490 nm)” value [2] was “activate”. For the same substance, the “Schwann cell proliferation ([3H]-thymidine incorporation)” value (rat RSC96 Schwann cells) was “activate”, the “expression of NGF, BDNF, and NT-4 cytokines” value (NGF, BDNF, and NT-4) was “over-express” and the “cell viability after H2O2” value (Schwann cells [3]) was “substantial improvement in cell viability”. For the same substance, the “increase in the fluoromyelin signal, relative fluorescence by plate reader” value (Schwann cells [4]; HGF 50 ng/ml, mimetic 5 uM, FIG. 2B) was 3 fold, the “fluoromyelin signal, confocal microscope” value (Schwann cells [4]; HGF/SF 50 ng/ml, mimetic 5 μM, FIG. 2A) was “intense increase” and the “neuronal cell proliferation / cell density” value (Human neurons) was “activate neuronal cell proliferation”. The neuronal axon growth (Human neurons; HGF/SF 50 ng/ml, mimetic 5 micromolar, 1% FBS) was “activate neuronal axon growth”, the “myelin production in oligodendrocytes” value (oligodendrocytes) was “induce myelin production” and the Schwann cell migration (Schwann cells [5]) was “similarly increase Schwann cell migration”.
